# Measured values from patent publication US10005769B2, “2,3-dihydrobenzofuran-5YL compounds as DYRK kinase inhibitors” (4SC DISCOVERY GMBH, priority 2013, dated 2018).
# Biological target: DYRK1B (Homo sapiens (Human), UniProt Q9Y463)
# Assay: DYRK1B Kinase Assay (33P ATP, DYRKtide substrate, Reaction Biology Corp.)
# Format: biochemical
# Details: 0.3 nM DYRK1B, 20 μM DYRKtide, 10 μM ATP, 25° C., 120 min
# Method: The assay was carried out by Reaction Biology Corp., […], Pa., USA according to specifications by Reaction Biology Corp., as detailed herein below and further described in Anastassiadis et al., Nature Biotechnology, 29 (2011) 1039-1045. The substrate DYRKtide (synthetic peptide RRRFRPASPLRGPPK) was dissolved in freshly prepared Base Reaction Buffer (20 mM Hepes (pH 7.5), 10 mM MgCl2, 1 mM EGTA, 0.02% Brij35, 0.02 mg/ml BSA, 0.1 mM Na3VO4, 2 mM DTT, 1% DMSO) at a concentration of 20 μM. DYRK1B was added to the substrate solution in a concentration of 0.3 nM and gently mixed. Dilution series of the compounds according to the present invention in DMSO were prepared. Each dilution was added to a batch of the above reaction mix, followed 20 min later by addition of a mixture of ATP and ^33P ATP (specific activity 0.01 μCi/μl final) to a final concentration of 10 μM. Reactions were carried out at 25° C. for 120 min, followed by spotting the reactions onto P81 ion exchange filter paper. Unbound phosphate was removed by extensive washing of the filters in 0.75% phosphoric acid. […] IC50 values and curve fits were obtained using Prism (Graph Pad Software). DYRK1B used in the above assays are further described in the below table: [table] Exemplary compound dilution series, final concentrations of compound in the assay vessel; the individual concentrations and the range of concentrations covered by the dilution series may differ for each compound, as long as enough data points are obtained to determine the compound's IC50: DYRK 1[…].
# DYRK1B, sequence (Q9Y463 whole entry): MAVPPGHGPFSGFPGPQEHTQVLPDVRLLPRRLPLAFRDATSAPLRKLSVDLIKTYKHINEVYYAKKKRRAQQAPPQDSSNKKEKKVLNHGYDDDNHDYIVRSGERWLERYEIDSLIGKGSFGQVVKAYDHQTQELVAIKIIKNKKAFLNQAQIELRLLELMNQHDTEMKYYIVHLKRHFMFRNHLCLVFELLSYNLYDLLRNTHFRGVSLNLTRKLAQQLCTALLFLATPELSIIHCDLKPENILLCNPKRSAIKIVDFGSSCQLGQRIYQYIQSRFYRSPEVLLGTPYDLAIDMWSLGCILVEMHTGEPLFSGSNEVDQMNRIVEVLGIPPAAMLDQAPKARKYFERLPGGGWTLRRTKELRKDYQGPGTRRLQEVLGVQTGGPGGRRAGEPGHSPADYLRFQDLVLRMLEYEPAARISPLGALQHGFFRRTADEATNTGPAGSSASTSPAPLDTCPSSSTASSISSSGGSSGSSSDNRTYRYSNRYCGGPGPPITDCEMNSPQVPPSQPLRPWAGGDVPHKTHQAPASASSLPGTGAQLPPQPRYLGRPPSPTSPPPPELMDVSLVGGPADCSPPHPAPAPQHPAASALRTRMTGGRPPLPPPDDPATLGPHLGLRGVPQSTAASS
row,IC50 [nM],Molecule
1,125,"Cc1nc(NC(=O)c2csc(-c3ccc4c(c3)CCO4)n2)sc1C [Compound 74, 2-(2,3-Dihydro-1-benzofuran-5-yl)-N-(dimethyl-1,3-thiazol-2-yl)-1,3-thiazole-4-carboxamide]"
2,17.8,"CC(C)Sc1n[nH]c(NC(=O)c2csc(-c3ccc4c(c3)CCO4)n2)n1 [Compound 24, 2-(2,3-Dihydrobenzofuran-5-yl)-N-(3-(isopropylthio)-1H-1,2,4-triazol-5-yl)thiazole-4-carboxamide]"
3,337,"O=C(Nc1nc(SCc2ccc(Cl)cc2)n[nH]1)c1csc(-c2ccc3c(c2)CCO3)n1 [Compound 33, N-(3-((4-Chlorobenzyl)thio)-1H-1,2,4-triazol-5-yl)-2-(2,3-dihydrobenzofuran-5-yl)thiazole-4-carboxamide]"
4,185,"CC(=O)c1csc(NC(=O)c2csc(-c3ccc4c(c3)CCO4)n2)n1 [Compound 76, N-(4-Acetyl-1,3-thiazol-2-yl)-2-(2,3-dihydro-1-benzofuran-5-yl)-1,3-thiazole-4-carboxamide]"
5,7.97,"CCCSc1n[nH]c(NC(=O)c2csc(-c3ccc4c(c3)CCO4)n2)n1 [Compound 30, 2-(2,3-Dihydrobenzofuran-5-yl)-N-(3-(propylthio)-1H-1,2,4-triazol-5-yl)thiazole-4-carboxamide]"
6,39.1,"CCOC(=O)CSc1n[nH]c(NC(=O)c2csc(-c3ccc4c(c3)CCO4)n2)n1 [Compound 61, Ethyl 2-({5-[2-(2,3-dihydro-1-benzofuran-5-yl)-1,3-thiazole-4-amido]-1H-1,2,4-triazol-3-yl}sulfanyl)acetate]"
7,5.57,"O=C(Nc1nc2cc(C(=O)c3cccs3)ccc2[nH]1)c1csc(-c2ccc3c(c2)CCO3)n1 [Compound 48, 2-(2,3-Dihydro-1-benzofuran-5-yl)-N-[5-(thiophene-2-carbonyl)-1H-1,3-benzodiazol-2-yl]-1,3-thiazole-4-carboxamide]"
8,17.6,"Cn1c(NC(=O)c2csc(-c3ccc4c(c3)CCO4)n2)nc2ccccc21 [Compound 54, 2-(2,3-Dihydro-1-benzofuran-5-yl)-N-(1-methyl-1H-1,3-benzodiazol-2-yl)-1,3-thiazole-4-carboxamide]"
9,3.97,"N#CCSc1n[nH]c(NC(=O)c2csc(-c3ccc4c(c3)CCO4)n2)n1 [Compound 38, N-(3-((Cyanomethyl)thio)-1H-1,2,4-triazol-5-yl)-2-(2,3-dihydrobenzofuran-5-yl)thiazole-4-carboxamide]"
10,152,"COC(=O)c1n[nH]c(NC(=O)c2csc(-c3ccc4c(c3)CCO4)n2)n1 [Compound 15, Methyl 5-(2-(2,3-dihydrobenzofuran-5-yl)thiazole-4-carboxamido)-1H-1,2,4-triazole-3-carboxylate]"
11,26.4,"CN1CCN(c2nnc(NC(=O)c3csc(-c4ccc5c(c4)CCO5)n3)s2)CC1 [Compound 57, 2-(2,3-Dihydro-1-benzofuran-5-yl)-N-[5-(4-methylpiperazin-1-yl)-1,3,4-thiadiazol-2-yl]-1,3-thiazole-4-carboxamide]"
12,111,"Cc1csc(NC(=O)c2csc(-c3ccc4c(c3)CCO4)n2)n1 [Compound 72, 2-(2,3-Dihydro-1-benzofuran-5-yl)-N-(4-methyl-1,3-thiazol-2-yl)-1,3-thiazole-4-carboxamide]"
13,73.4,"Nc1nc(NC(=O)c2csc(-c3ccc4c(c3)CCO4)n2)ns1 [Compound 70, N-(5-Amino-1,2,4-thiadiazol-3-yl)-2-(2,3-dihydro-1-benzofuran-5-yl)-1,3-thiazole-4-carboxamide]"
14,420,"CSc1nc(NC(=O)c2csc(-c3ccc4c(c3)CCO4)n2)ns1 [Compound 77, 2-(2,3-Dihydro-1-benzofuran-5-yl)-N-[5-(methylsulfanyl)-1,2,4-thiadiazol-3-yl]-1,3-thiazole-4-carboxamide]"
15,67.1,"O=C(Nc1nc(-c2cccc(F)c2)n[nH]1)c1csc(-c2ccc3c(c2)CCO3)n1 [Compound 68, 2-(2,3-Dihydro-1-benzofuran-5-yl)-N-[3-(3-fluorophenyl)-1H-1,2,4-triazol-5-yl]-1,3-thiazole-4-carboxamide]"
16,15.7,"O=C(Nc1nc2ccc(CN3CCOCC3)cc2s1)c1csc(-c2ccc3c(c2)CCO3)n1 [Compound 40, 2-(2,3-Dihydrobenzofuran-5-yl)-N-(6-(morpholinomethyl)benzo[d]thiazol-2-yl)thiazole-4-carboxamide]"
17,42.4,"O=C(Nc1cc[nH]n1)c1csc(-c2ccc3c(c2)CCO3)n1 [Compound 62, 2-(2,3-Dihydro-1-benzofuran-5-yl)-N-(1H-pyrazol-3-yl)-1,3-thiazole-4-carboxamide]"

row,IC50 [nM],Molecule
1,20.6,"CCOC(=O)c1c[nH]nc1NC(=O)c1csc(-c2ccc3c(c2)CCO3)n1 [Compound 55, Ethyl 3-[2-(2,3-dihydro-1-benzofuran-5-yl)-1,3-thiazole-4-amido]-1H-pyrazole-4-carboxylate]"
2,18.3,"CSc1nnc(NC(=O)c2csc(-c3ccc4c(c3)CCO4)n2)[nH]1 [Compound 21, 2-(2,3-Dihydrobenzofuran-5-yl)-N-(5-(methylthio)-4H-1,2,4-triazol-3-yl)thiazole-4-carboxamide]"
3,112,"O=C(Nc1nc(CCc2ccccc2)n[nH]1)c1csc(-c2ccc3c(c2)CCO3)n1 [Compound 36, 2-(2,3-Dihydrobenzofuran-5-yl)-N-(3-phenethyl-1H-1,2,4-triazol-5-yl)thiazole-4-carboxamide]"
4,76.6,"O=C(Nc1nncs1)c1csc(-c2ccc3c(c2)CCO3)n1 [Compound 71, 2-(2,3-Dihydro-1-benzofuran-5-yl)-N-(1,3,4-thiadiazol-2-yl)-1,3-thiazole-4-carboxamide]"
5,38.1,"CC(C)CSc1n[nH]c(NC(=O)c2csc(-c3ccc4c(c3)CCO4)n2)n1 [Compound 34, 2-(2,3-Dihydrobenzofuran-5-yl)-N-(3-(isobutylthio)-1H-1,2,4-triazol-5-yl)thiazole-4-carboxamide]"
6,72.6,"Cc1nsc(NC(=O)c2csc(-c3ccc4c(c3)CCO4)n2)n1 [Compound 69, 2-(2,3-Dihydro-1-benzofuran-5-yl)-N-(3-methyl-1,2,4-thiadiazol-5-yl)-1,3-thiazole-4-carboxamide]"
7,114,"O=C(Nc1ncns1)c1csc(-c2ccc3c(c2)CCO3)n1 [Compound 73, 2-(2,3-Dihydro-1-benzofuran-5-yl)-N-(1,2,4-thiadiazol-5-yl)-1,3-thiazole-4-carboxamide]"
8,14.4,"CCOC(=O)C1CCN(c2nnc(NC(=O)c3csc(-c4ccc5c(c4)CCO5)n3)s2)CC1 [Compound 53, Ethyl 1-{5-[2-(2,3-dihydro-1-benzofuran-5-yl)-1,3-thiazole-4-amido]-1,3,4-thiadiazol-2-yl}piperidine-4-carboxylate]"
9,31.5,"O=C(Nc1nnc(-c2ccncc2)s1)c1csc(-c2ccc3c(c2)CCO3)n1 [Compound 59, 2-(2,3-Dihydro-1-benzofuran-5-yl)-N-[5-(pyridin-4-yl)-1,3,4-thiadiazol-2-yl]-1,3-thiazole-4-carboxamide]"
10,12.6,"O=C(Nc1nnc(N2CCCCC2)s1)c1csc(-c2ccc3c(c2)CCO3)n1 [Compound 52, 2-(2,3-Dihydro-1-benzofuran-5-yl)-N-[5-(piperidin-1-yl)-1,3,4-thiadiazol-2-yl]-1,3-thiazole-4-carboxamide]"
11,50.5,"Cc1cc(NC(=O)c2csc(-c3ccc4c(c3)CCO4)n2)n[nH]1 [Compound 66, 2-(2,3-Dihydro-1-benzofuran-5-yl)-N-(5-methyl-1H-pyrazol-3-yl)-1,3-thiazole-4-carboxamide]"
12,109,"Ethyl 5-(2-(2,3-dihydrobenzofuran-5-yl)thiazole-4-carboxamido)-4H-1,2,4-triazole-3-carboxylate [Compound 20]"
13,535,"CS(=O)(=O)c1n[nH]c(NC(=O)c2csc(-c3ccc4c(c3)CCO4)n2)n1 [Compound 43, 2-(2,3-Dihydrobenzofuran-5-yl)-N-(3-(methylsulfonyl)-1H-1,2,4-triazol-5-yl)thiazole-4-carboxamide]"
14,177,"O=C(Nc1ncccc1O)c1csc(-c2ccc3c(c2)CCO3)n1 [Compound 16, 2-(2,3-Dihydrobenzofuran-5-yl)-N-(3-hydroxypyridin-2-yl)thiazole-4-carboxamide]"
15,2.06,"O=C(Nc1nc(-c2ccncc2)n[nH]1)c1csc(-c2ccc3c(c2)CCO3)n1 [Compound 42, 2-(2,3-Dihydrobenzofuran-5-yl)-N-(3-(pyridin-4-yl)-1H-1,2,4-triazol-5-yl)thiazole-4-carboxamide]"
16,56,"O=C(Nc1nc(SCCc2ccccc2)n[nH]1)c1csc(-c2ccc3c(c2)CCO3)n1 [Compound 37, 2-(2,3-Dihydrobenzofuran-5-yl)-N-(3-(phenethylthio)-1H-1,2,4-triazol-5-yl)thiazole-4-carboxamide]"
17,6.63,"O=C(Nc1nc2cc(C(=O)c3ccc[nH]3)ccc2[nH]1)c1csc(-c2ccc3c(c2)CCO3)n1 [Compound 49, 2-(2,3-Dihydro-1-benzofuran-5-yl)-N-[5-(H-pyrrole-2-carbonyl)-1H-1,3-benzodiazol-2-yl]-1,3-thiazole-4-carboxamide]"
